According to ChEMBL document CHEMBL6103569, “Discovery of novel fluorine-containing parthenolide analogues as potential antitumor agents” (Eur J Med Chem, 2025):

Columns and labels:
[1] = Acute toxicity in BALB/c mouse assessed as lung damage at 100 mg/kg, po; type: organism-based; details: in vivo
[2] = Acute toxicity in BALB/c mouse assessed as brain damage at 100 mg/kg, po; type: organism-based; details: in vivo
[3] = Tmax in male BALB/c mouse at 50 mg/kg, po measured upto 24 hrs by LC-MS/MS analysis; type: ADME, organism-based; details: in vivo
[4] = Acute toxicity in BALB/c mouse assessed as liver damage at 100 mg/kg, po; type: organism-based; details: in vivo
[5] = Acute toxicity in BALB/c mouse assessed as heart damage at 100 mg/kg, po; type: organism-based; details: in vivo
[6] = Acute toxicity in BALB/c mouse assessed as spleen damage at 100 mg/kg, po; type: organism-based; details: in vivo
[7] = Acute toxicity in BALB/c mouse assessed as kidney damage at 100 mg/kg, po; type: organism-based; details: in vivo
[8] = MRT (0 to t) in male BALB/c mouse at 50 mg/kg, po measured upto 24 hrs by LC-MS/MS analysis; type: ADME, organism-based; details: in vivo
PANC-1 = test: Antiproliferative activity against human PANC-1 cells assessed as inhibition of cell growth incubated for 72 hrs by MTT assay; type: functional, cell-based; details: panc-1
[9] = MRT (0 to t) in male BALB/c mouse at 10 mg/kg, iv measured upto 24 hrs by LC-MS/MS analysis; type: ADME, organism-based; details: in vivo
Huh-7 = test: Antiproliferative activity against human Huh-7 cells assessed as inhibition of cell growth incubated for 72 hrs by MTT assay; type: functional, cell-based; details: huh-7
[10] = Initial plasma concentration in male BALB/c mouse at 10 mg/kg, iv measured upto 24 hrs by LC-MS/MS analysis; type: ADME, organism-based
[11] = Half life in male BALB/c mouse at 10 mg/kg, iv measured upto 24 hrs by LC-MS/MS analysis; type: ADME, organism-based; details: in vivo
[12] = Half life in male BALB/c mouse at 50 mg/kg, po measured upto 24 hrs by LC-MS/MS analysis; type: ADME, organism-based; details: in vivo
[13] = Antiproliferative activity against human NCI-H820 cells assessed as inhibition of cell growth incubated for 72 hrs by MTT assay; type: functional, cell-based; details: nci-h820
[14] = Volume of distribution in male BALB/c mouse at 10 mg/kg, iv measured upto 24 hrs by LC-MS/MS analysis; type: ADME, organism-based; details: in vivo
[15] = Cmax in male BALB/c mouse at 50 mg/kg, po measured upto 24 hrs by LC-MS/MS analysis; type: ADME, organism-based; details: in vivo
[16] = AUC (0 to infinity) in male BALB/c mouse at 10 mg/kg, iv measured upto 24 hrs by LC-MS/MS analysis; type: ADME, organism-based; details: in vivo
[17] = Prodrug conversion of the compound in HEPES buffer assessed as (1aR,7aS,10aS,10bS)-1a-methyl-8-methylene-5-(2,2,2-trifluoroethyl)-2,3,6,7,7a,8,10a,10b-octahydrooxireno[2',3':9,10]cyclodeca[1,2-b]furan-9(1aH)-one formation by measuring half life at pH 7.4 by RP-HPLC analysis; type: ADME
[18] = AUC (0 to t) in male BALB/c mouse at 50 mg/kg, po measured upto 24 hrs by LC-MS/MS analysis; type: ADME, organism-based; details: in vivo
[19] = Clearance in male BALB/c mouse at 10 mg/kg, iv measured upto 24 hrs by LC-MS/MS analysis; type: ADME, organism-based; details: in vivo
[20] = AUC (0 to t) in male BALB/c mouse at 10 mg/kg, iv measured upto 24 hrs by LC-MS/MS analysis; type: ADME, organism-based; details: in vivo
[21] = AUC (0 to infinity) in male BALB/c mouse at 50 mg/kg, po measured upto 24 hrs by LC-MS/MS analysis; type: ADME, organism-based; details: in vivo
[22] = Acute toxicity in BALB/c mouse assessed as change in body weight at 100 mg/kg, po; type: organism-based; details: in vivo
[23] = Oral bioavailability in male BALB/c mouse at 50 mg/kg measured upto 24 hrs by LC-MS/MS analysis; type: ADME, organism-based; details: in vivo

CN(C)CC1C(=O)O[C@H]2[C@H]1CC/C(CC(F)(F)F)=C\CC[C@@]1(C)O[C@@H]21.O=C(O)/C=C/C(=O)O (stereo not given in full)
Activity [1]: Non-toxic | Activity [2]: Non-toxic | Tmax [3]: 15 min | Activity [4]: Non-toxic | Activity [5]: Non-toxic | Activity [6]: Non-toxic | Activity [7]: Non-toxic | MRT last at 24 h [8]: 49.7 min | IC50 (PANC-1): 4.16 µM | MRT last at 24 h [9]: 24.1 min | IC50 (Huh-7): 3.41 µM | C0 at 24 h [10]: 1450 ng/mL | half-life [11]: 33.2 min | half-life [12]: 47.9 min | IC50 [13]: 4.18 µM | Vd [14]: 12.1 L/kg | Cmax [15]: 1080 ng/mL | AUC(0-inf) [16]: 444 ng·h/mL | t1/2 [17]: 1.28 h | AUC(0-t) at 24 h [18]: 991 ng·h/mL | clearance [19]: 253 mL/min/kg | AUC(0-t) at 24 h [20]: 438 ng·h/mL | AUC(0-inf) [21]: 991 ng·h/mL | Activity [22]: Non-toxic | bioavailability [23]: 45.2%
